Like-named read-outs stand apart in the source and are kept apart here. Marks after values point to notes of the source that are not given here. One block for each compound: values may come before it.
Legend:
[1] = Protonation constants of the ligands (pH-potentiometry, spectrophotometry); type: physicochemical; settings: 0.15 M NaNO3, 25 °C; for logK3^H / logK4^H / logK1^H / logK2^H: pH-potentiometry; for ΣlogK1–4^H: total basicity
Procedure: Since the thermodynamic properties of any metal complex proposed for in vivo applications must be characterized by high thermodynamic stability, the equilibrium properties of AMPTA, AMPDA-HB, and CD3A-Bn ligands and their Al(III) complexes were investigated in detail. First, the protonation constants of the ligands, defined by Equation (1), were determined by pH-potentiometry and the logKi^H values are listed in Table 1. (1) KiH=HiL/Hi−1LH^+
The protonation constants of the AMPTA, AMPDA-HB, and CD3A-Bn and those of the Al(III) complexes were determined by pH-potentiometric titration. The metal-to-ligand concentration ratio was 1:1 (the concentration of the ligand was generally 0.002 M). For the pH measurements and titrations, a Metrohm 888 Titrando automatic titration workstation with a Metrohm-6.0234.110 combined electrode was used. Equilibrium measurements were carried out at a constant ionic strength (0.15 M NaNO3) in 6 mL samples at 25 °C under magnetic stirring and N2 bubbling. The titrations were made in the pH range 1.7–12.0. KH-phthalate (pH = 4.005) and borax (pH = 9.177) buffers were used to calibrate the pH meter. For the calculation of [H^+] from the measured pH values, the method proposed by Irving et al. was used. A 0.01 M HNO3 solution was titrated with the standardized NaOH solution in the presence of 0.15 M NaNO3 ionic strength. The differences (A) between the measured (pHread) and calculated pH (−log[H^+]) values were used to obtain the equilibrium H^+ concentration from the pH values measured in the titration experiments (A = −0.035). The waiting time between two pH measurements was 60 s. For the equilibrium calculations, the stoichiometric water ionic product (pKw) was also needed to calculate [OH^−] values under basic conditions. The VNaOH-pHread data pairs of the HNO3NaOH titration obtained in the pH range 10.5–12.0 were used to calculate the pKw value (pKw = 13.78). The protonation and stability constants were calculated with the PSEQUAD program.

[2] = Stability and protonation constants of the Al(III) complexes (pH-potentiometry, 27Al NMR); type: physicochemical; settings: 0.15 M NaNO3, 25 °C; for logβAlLH−1: cumulative stability constant of AlLH−1; for logKAlLH−1: protonation constant of AlLH−1 species, pH-potentiometry; for logKAlL: stability constant of Al(III) complex, 27Al NMR spectroscopy
Procedure: The stability and protonation constants of the Al(III) complexes of AMPTA, AMPDA-HB, and CD3A-Bn, defined by Equations (2)–(4), were investigated by pH-potentiometry and by multinuclear NMR spectroscopy at 25 °C in 0.15 M NaNO3 solution. (2) KAlL=AlL/Al^3+L (3) KAlLH−1=AlL/AlLH−1H^+ (4) Al^3++L+OH^− ⇌AlLH−1 βAlLH−1=AlLH−1/Al^3+LOH^−
In order to avoid the hydrolysis of the Al(III) ion, the pH-potentiometric titration of the pre-prepared complexes of AMPTA, AMPDA-HB, and CD3A-Bn ligands was performed at pH > 4.0.
To determine the stability constant of the Al(III) complexes, the ^1H and ^27Al NMR spectra of the Al^3+-AMPTA, Al^3+-AMPDA-HB, and Al^3+-CD3A-Bn systems were recorded in the pH range 8.0–12. ^1H and ^27Al NMR spectra of the three systems are shown in Figures S1–S6.
The analysis of the ^27Al NMR data was used for the calculation of the stability constants of the [Al(AMPTA)], [Al(AMPDA-HB)], and [Al(CD3A-Bn)] complexes. Integrals of the ^27Al NMR signal ([Al(OH)4]^− at 81 ppm, ν½ = 11 Hz; see Figures S2, S4 and S6) were used for the calculation of the logKAlL value of the three Al complexes by taking into account the protonation constant of the AlLH−1 species (Equation (3), Table 1) and the known hydrolysis constants of the free Al^3+ ion (logK[Al(OH)]^2+ = −4.60, logK[Al(OH)2]^+ = −9.09, logK[Al(OH)3] = −14.94 and logK[Al(OH)4]^− = −23.08, logK[Al2(OH)2]^4+ = −8.0, logK[Al3(OH)4]^5+ = −13.47, logK[Al13(OH)32]^7+ = −104.81). […] The equilibrium data obtained by pH-potentiometry and multinuclear NMR spectroscopy were used to calculate the species distribution diagram for the Al(III)-AMPTA, Al(III)AMPDA-HB, and Al(III)-CD3A-Bn systems (Figure 1, Figure 2 and Figure 3). The amount of [Al(OH)4]^− species determined by ^27Al NMR studies (Figures S2, S4 and S6) is also shown in Figure 2, Figure 3 and Figure 4.
The protonation constants of the AMPTA, AMPDA-HB, and CD3A-Bn and those of the Al(III) complexes were determined by pH-potentiometric titration. The metal-to-ligand concentration ratio was 1:1 (the concentration of the ligand was generally 0.002 M). For the pH measurements and titrations, a Metrohm 888 Titrando automatic titration workstation with a Metrohm-6.0234.110 combined electrode was used. Equilibrium measurements were carried out at a constant ionic strength (0.15 M NaNO3) in 6 mL samples at 25 °C under magnetic stirring and N2 bubbling. The titrations were made in the pH range 1.7–12.0. KH-phthalate (pH = 4.005) and borax (pH = 9.177) buffers were used to calibrate the pH meter. For the calculation of [H^+] from the measured pH values, the method proposed by Irving et al. was used. A 0.01 M HNO3 solution was titrated with the standardized NaOH solution in the presence of 0.15 M NaNO3 ionic strength.

[3] = cited from earlier work
[4] = parameters: method as in PMID 31830368; settings: cited from earlier work
[5] = Protonation constants of the ligands (pH-potentiometry, spectrophotometry); type: physicochemical; settings: 0.15 M NaNO3, 25 °C
[6] = parameters: method as in PMID 31830368; settings: up to 4 h in PBS, serum, and EDTA solutions; cited from earlier work
[7] = 0.1 M KNO3, 25 °C, cited from earlier work; for logKAlL: stability constant of Al(III) complex
[8] = parameters: method as in doi:10.1021/ac60305a041, doi:10.1021/ja00792a018; settings: 0.5 M Me4NCl, 25 °C; cited from earlier work
[9] = parameters: method as in doi:10.1007/s11144-015-0892-6; settings: 1.0 M NaCl, cited from earlier work

logK3^H [1]: 4.94 (5)
logK4^H [1]: 2.01 (5)
ΣlogK1–4^H [1]: 28.87
logβAlLH−1 [2]: 11.7 (1)
logKAlLH−1 [2]: 6.94 (6)
logKAlL [2]: 18.6 (1) ^d
logK1^H [5]: 12.0 (1) ^b
logK2^H [5]: 9.92 (5) ^b
Compound: O=C(O)CN(Cc1ccccc1O)CC1CCCCN1CC(=O)O (stereo not shown) [AMPDA-HB]
logK1^H ([3]; 0.15 M NaCl, 25 °C): 12.4
logK2^H ([3]; 0.15 M NaCl, 25 °C): 10.14
logK3^H ([3]; 0.15 M NaCl, 25 °C): 4.76
logK4^H ([3]; 0.15 M NaCl, 25 °C): 1.91
ΣlogK1–4^H ([3]; 0.15 M NaCl, 25 °C): 29.21
excretion of the [Al18F]-labelled complex in vivo [4]: rapid hepatobiliary and renal excretion
accumulation in the bones of the [Al18F]-labelled complex ([4]; in vivo): low accumulation in the bones
stability in vitro of the [Al18F]-labelled complex [6]: high stability

Compound: O=C(O)CN(CC(=O)O)[C@@H]1CCCC[C@H]1N(CC(=O)O)CC(=O)O (relative stereo) [CDTA, trans-1,2-diaminocyclohexane-N,N,N′,N′-tetraacetic acid]
logK1^H ([3]; 0.15 M NaNO3, 25 °C): 9.54
logK2^H ([3]; 0.15 M NaNO3, 25 °C): 6.08
logK3^H ([3]; 0.15 M NaNO3, 25 °C): 3.65
logK4^H ([3]; 0.15 M NaNO3, 25 °C): 2.69
logK5^H ([3]; 0.15 M NaNO3, 25 °C): 1.14
ΣlogK1–4^H ([3]; 0.15 M NaNO3, 25 °C): 21.96
logKAlLH−1 [7]: 7.70 ^e
logβAlLH−1 [7]: 11.2 ^e
logKAlL [7]: 18.9 ^e

Compound: Oc1ccccc1 [phenol]
logK^H ([3]; 0.1 M NaClO4): 10.0

Compound: O=C([O-])CN(CCN(CC(=O)O)CC(=O)O)CC(=O)O.[Na+] [[Na(EDTA)]^3−]
logKNaL [8]: 1.43

logK1^H [1]: 11.49 (1)
logK2^H [1]: 5.56 (4)
logK3^H [1]: 2.75 (5)
logK4^H [1]: 1.73 (5)
ΣlogK1–4^H [1]: 21.53
logβAlLH−1 [2]: 9.8 (1)
logKAlLH−1 [2]: 5.06 (6)
logKAlL [2]: 14.9 (1) ^d
Compound: O=C(O)CN(CC(=O)O)CC1CCCCN1CC(=O)O (stereo not shown) [AMPTA]
logK1^H ([3]; 0.15 M NaCl, 25 °C): 11.67
logK2^H ([3]; 0.15 M NaCl, 25 °C): 5.47
logK3^H ([3]; 0.15 M NaCl, 25 °C): 2.74
logK4^H ([3]; 0.15 M NaCl, 25 °C): 1.62
ΣlogK1–4^H ([3]; 0.15 M NaCl, 25 °C): 21.50

logK1^H [1]: 10.72 (2)
logK2^H [1]: 5.22 (3)
logK3^H [1]: 3.34 (3)
logK4^H [1]: 0.59 (9)
ΣlogK1–4^H [1]: 19.87
logβAlLH−1 [2]: 9.3 (1)
logKAlLH−1 [2]: 5.20 (4)
logKAlL [2]: 14.5 (1) ^d
Compound: O=C(O)CN(CC(=O)O)[C@@H]1CCCC[C@H]1N(CC(=O)O)Cc1ccccc1 [CD3A-Bn, trans-1,2-diaminocyclohexane-N-benzyl-N,N′,N′-triacetic acid]

Compound: O=C(O)CN(CCN(CC(=O)O)CC(=O)O)CC(=O)O [EDTA]
logK1^H ([3]; 0.15 M NaNO3, 25 °C): 9.40
logK2^H ([3]; 0.15 M NaNO3, 25 °C): 6.10
logK3^H ([3]; 0.15 M NaNO3, 25 °C): 2.72
logK4^H ([3]; 0.15 M NaNO3, 25 °C): 2.08
logK5^H ([3]; 0.15 M NaNO3, 25 °C): 1.23
ΣlogK1–4^H ([3]; 0.15 M NaNO3, 25 °C): 20.30
logKAlLH−1 [7]: 6.0 ^e
logβAlLH−1 [7]: 10.5 ^e
logKAlL [7]: 16.5 ^e

Compound: O=C([O-])CN1CCN(CC(=O)[O-])CCN(CC(=O)[O-])CC1.[Al+3] [[Al(NOTA)]]
KAl(L)H−2 (KAl(NOTA)H−1 for [Al(NOTA)]) ([9]; 25 °C): 1.6 × 10^12 c M^−1
k0 ([9]; 25 °C): 2e-06 s⁻¹
k1 (kOH for [Al(NOTA)]) ([9]; 25 °C): 6.8 × 10^−6 b M^−1 s^−1
logKAl(L)H−2 ([9]; 25 °C): 12.2
kd (pH = 7.4) ([9]; pH 7.4, 25 °C): 2 × 10^−6 s^−1
t1/2 (pH = 7.4), dissociation half-life (ln2/kd) ([9]; pH 7.4, 25 °C): 94 h

Compound: O=C([O-])CN(CC(=O)O)C1CCCCC1N(CC(=O)O)CC(=O)O.[Na+] (stereo not shown) [[Na(CDTA)]^3−]
logKNaL [8]: 4.66
